Reference: ChEMBL document CHEMBL4043166, “Triazole tethered isatin-coumarin based molecular hybrids as novel antitubulin agents: Design, synthesis, biological investigation and docking studies” (Bioorg Med Chem Lett, 2017)
Calls of active or inactive are those of the source. The rule behind the calls is not given here.

Experiments:
[1] = system: COLO 205; test: Cytotoxicity against human COLO205 cells assessed as growth inhibition at 50 uM after 48 hrs by SRB assay relative to control; type: functional; settings: COLO 205, 48 h, read-out: GI
[2] = system: PC-3; test: Cytotoxicity against human PC3 cells assessed as growth inhibition at 50 uM after 48 hrs by SRB assay relative to control; type: functional; settings: PC-3, 48 h, read-out: GI
[3] = system: THP-1; test: Cytotoxicity against human THP1 cells assessed as growth inhibition at 50 uM after 48 hrs by SRB assay relative to control; type: functional; settings: THP-1, 48 h, read-out: GI
[4] = system: HCT-116; test: Cytotoxicity against human HCT116 cells assessed as growth inhibition at 50 uM after 48 hrs by SRB assay relative to control; type: functional; settings: HCT-116, 48 h, read-out: GI
[5] = system: COLO 205; test: Cytotoxicity against human COLO205 cells assessed as cell growth inhibition after 48 hrs by SRB assay; type: functional, cell-based; settings: COLO 205, 48 h
[6] = system: THP-1; test: Cytotoxicity against human THP1 cells assessed as cell growth inhibition after 48 hrs by SRB assay; type: functional, cell-based; settings: THP-1, 48 h
[7] = system: HCT-116; test: Cytotoxicity against human HCT116 cells assessed as cell growth inhibition after 48 hrs by SRB assay; type: functional, cell-based; settings: HCT-116, 48 h
[8] = Inhibition of tubulin (unknown origin) polymerization; parameters: species or system Homo sapiens
[9] = organism: Homo sapiens; test: Inhibition of tubulin polymerization in human THP1 cells assessed as disrupted microtubule formation at 5 uM after 48 hrs by confocal microscopic analysis; type: cell-based

| Structure (SMILES) | inhibition of growth at 50 µM [1] [%] | inhibition of growth at 50 µM [2] [%] | inhibition of growth at 50 µM [3] [%] | inhibition of growth at 50 µM [4] [%] | IC50 [5] [µM] | IC50 [6] [µM] | IC50 [7] [µM] | IC50 [8] [µM] | inhibition [9] |
| --- | --- | --- | --- | --- | --- | --- | --- | --- | --- |
| COc1ccc2c(c1)C(=O)C(=O)N2CCn1cc(COc2cc(=O)oc3ccccc23)nn1 | 53 | 14 | 68 | 65 | – | – | – | – | – |
| O=C1C(=O)N(CCCCCn2cc(COc3cc(=O)oc4ccccc34)nn2)c2ccc(F)cc21 | 56 | – | 63 | 59 | – | – | – | – | – |
| O=C1C(=O)N(CCn2cc(COc3cc(=O)oc4ccccc34)nn2)c2ccc(F)cc21 | 76 | 26 | 92 | 80 | 6.67 | 1.99 | 5.41 | 3.55 | – |
| O=C1C(=O)N(CCCCn2cc(COc3cc(=O)oc4ccccc34)nn2)c2ccc(F)cc21 | 64 | 17 | 77 | 67 | 9.11 | 7.1 | 10.4 | – | – |
| O=C1C(=O)N(CCCCn2cc(COc3cc(=O)oc4ccccc34)nn2)c2ccc(Cl)cc21 | 60 | 14 | 71 | 62 | 13.1 | 7.56 | 12.8 | – | – |
| COc1ccc2c(c1)C(=O)C(=O)N2CCCCn1cc(COc2cc(=O)oc3ccccc23)nn1 | 41 | – | 52 | 48 | – | – | – | – | – |
| O=C1C(=O)N(CCCCCn2cc(COc3cc(=O)oc4ccccc34)nn2)c2ccccc21 | 62 | 9 | 69 | 65 | – | – | – | – | – |
| O=C1C(=O)N(CCCn2cc(COc3cc(=O)oc4ccccc34)nn2)c2ccc(F)cc21 | 69 | 20 | 86 | 75 | 8.88 | 5.76 | 7.26 | – | – |
| O=C1C(=O)N(CCCCCn2cc(COc3cc(=O)oc4ccccc34)nn2)c2ccc(Cl)cc21 | 48 | – | 59 | 52 | – | – | – | – | – |
| O=C1C(=O)N(CCCn2cc(COc3cc(=O)oc4ccccc34)nn2)c2ccc(Br)cc21 | 61 | 14 | 72 | 66 | 13 | 7.14 | 11.5 | – | – |
| O=C1C(=O)N(CCn2cc(COc3cc(=O)oc4ccccc34)nn2)c2ccc(I)cc21 | 62 | 17 | 74 | 70 | 12 | 7.01 | 8.99 | – | – |
| O=C1C(=O)N(CCCn2cc(COc3cc(=O)oc4ccccc34)nn2)c2ccc(Cl)cc21 | 67 | 18 | 78 | 68 | 10.7 | 6.99 | 9.66 | – | – |
| O=C1C(=O)N(CCn2cc(COc3cc(=O)oc4ccccc34)nn2)c2ccccc21 | 80 | 28 | 98 | 87 | 3.45 | 0.73 | 3.04 | 1.06 | Active |
| O=C1C(=O)N(CCCCn2cc(COc3cc(=O)oc4ccccc34)nn2)c2ccc([N+](=O)[O-])cc21 | 45 | 8 | 55 | 53 | – | – | – | – | – |
